For one series, the system named is r(CCUG)300. Put plainly: Disruption of nuclear foci by FISH in DM2 cell culture model. Type of series: cell-based. The settings on record: C2C12 cells expressing r(CCUG)300, 72 h treatment; untreated 9±2. On the procedure: FISH was utilized to determine the effects of clickable compounds on the formation of nuclear foci. C2C12 were sub-cultured into Mat-Tek 96-well glass bottom plates in growth medium. After the cells reached 60-70% confluency, each well was transfected with 200 ng of total plasmid using 1 μL of Lipofectamine 2000 according to the manufacturer's standard protocol. Equal amounts of plasmids expressing the DM2 mini-gene^[1] and EGFP, used as a positive marker of transfection, were used. After 5 h, the transfection cocktail was removed and replaced with differentiation medium containing the compound of interest. The cells were treated with compound for 72 h followed by FISH as previously described using 1 ng/μL DY547-2′OMe-(CAGG)5^[6]. Cells were imaged in 1×DPBS using an Olympus FluoView 1000 confocal microscope at 100× magnification.

Series [1] deals with r(CUG)exp. Put plainly: Nuclear foci by FISH in DM1 patient derived fibroblasts. The series is classed as cell-based, human. The settings on record: 48 h. On the procedure: FISH was utilized to determine the effects of small molecule dimers on the formation and disruption of nuclear foci. DM1 patient derived fibroblasts containing 500 CTG repeats (GM03987) were grown to ˜80% confluence in a Mat-Tek 96-well glass bottom plate in growth medium. Cells were treated with the compound of interest for 48 h in growth medium followed by FISH as previously described^6 using 1 ng/μL DY547-2′OMe-(CAG)6. Immunostaining of MBNL1 was completed as previously described^7 using the MB1a antibody (diluted 1:4), which was generously supplied by Prof. Glenn E. Morris (Wolfson Centre for Inherited Neuromuscular Disease^[9]. This was fluorescently labeled using a 1:200 dilution of goat anti-mouse IgG DyLight 488 conjugate. Untreated controls were stained using a 1 μg/μL solution of DAPI in 1×DPBS. Cells were imaged in 1×DPBS using an Olympus FluoView 1000 confocal microscope at 100× magnification.

Series [2] relates to r(CUG)exp. Put plainly: DM1 pre-mRNA splicing defects in patient derived fibroblasts. Type of series: cell-based, human. On the procedure:
Bioactivity of small molecule dimers was assessed by using DM1 patient derived fibroblasts containing 500 CTG repeats (GM03987) and healthy fibroblasts (GM07492). Cells were grown as monolayers in 12 well plates in growth medium (1×EMEM (Lonza), 10% FBS, 1× glutagro (Corning), 1×MEM non-essential amino acids (Corning) and 1× antibiotic/antimycotic (Corning)). Once cells were ˜80% confluent, they were treated with growth medium containing the compound of interest (10, 1, 0.1 and 0.01 μM 2H-K4NMeS; 100, 10 and 1 nM 2H-K4NMeS-CA-Biotin; 1 μM N3-2H-K4NMeS; 500 nM N3-2H-K4NMeS+500 nM 2H-K4NMeS-Aminohexanoate; 1000, 10 and 0.1 nM N3-2H-K4NMeS-Aak; 250, 100, and 50 nM 2H-K4NMeS-Bleomycin A5). After 48 h the cells were lysed and the total RNA was harvested using a Zymo Quick RNA miniprep kit. An on-column DNA digestion was completed per the manufacturer's recommended protocol. Approximately 150 ng of total RNA was reverse transcribed at 50° C. using 100 units of SuperScript III reverse transcriptase (Life Technologies). Then 20% of the RT reaction was subjected to PCR using GoTaq DNA polymerase (Promega). RT-PCR products were observed after 25 cycles of 95° C. for 30 s, 58° C. for 30 s, 72° C. for 1 min and a final extension at 72° C. for 1 min. The products were separated on an 2% agarose gel ran at 100 V for 1 h in 1×TAE buffer. The products were visualized by staining with ethidium bromide and scanned using a Bio-Rad Gel Doc XR+ imaging system. The RT-PCR primers for the MBNL1 were […]

Series [3] concerns r(CUG) repeats in 3' UTR of luciferase. Put plainly: Translational defect luciferase reporter assay, 800 CTG repeats. The settings on record: cells with long, toxic r(CUG) repeats. The series is classed as cell-based. On the procedure: (§1) C2C12 cell lines expressing 800 or 0 CTG repeats in the 3′ UTR of luciferase were grown as monolayers in 96-well plates in growth medium (1×DMEM, 10% FBS, 1× glutagro, (Corning) andlX antibiotic/antimycotic (Corning))^[10]. Once the cells were 70% confluent, the click functionalized dimers were added in 100 μL of growth medium (1000 nM N3-2H-K4NMeS and 1000, 10 and 0.1 nM N3-2H-K4NMeS-Aak). Cells were treated with compound for 48 h and then the cell count was normalized using WST-1 reagent (Roche). Then cells were washed with 1×DPBS and lysed by treating with 50 μL of PPBT lysis buffer at room temperature for 10 minutes. Then 50 μL of luciferase substrate was added and luminescence was measured.
(Reporter assays use an easily measured gene product as a stand-in for the process of interest.)

Series [4] deals with luciferase reporter without CTG repeats. Put plainly: Translational defect luciferase reporter assay, 0 CTG repeats. Type of series: cell-based. On the procedure:
as §1

Series [5] concerns r(CUG)exp. Put plainly: Splicing defects in HSA LR DM1 mouse model. Type of series: in vivo. The settings on record: intraperitoneal once per day for 7 days, vastus muscle. How it is done: All experimental procedures, mouse handling, and husbandry were completed in accordance with the Association for Assessment and Accreditation of Laboratory Animal Care. A mouse model for DM1^[8], HSA^LR in line 20b, was used. HSA^LR mice express human skeletal actin RNA with 250 CUG repeats in the 3′ UTR. Age- and gender-matched HSA^LR mice were injected intraperitoneally with either 100 mg/kg 2H-K4NMe in water or 13.3 mg/kg 2H-K4NMeS for treatment and 0.9% NaCl for control once per day for 7 days. Mice were sacrificed one day after the last injection, and the vastus muscle was obtained. RNA was extracted from the vastus tissue, and cDNA was synthesized as previously described.

Series [6] can be described thus: Metabolic stability in rat microsomes. The series is classed as in vitro ADME.
The next series concerns DMPK mRNA. As to conditions: 100 nM, 48 h, qRT-PCR of r(CUG)-containing mRNAs. A general note: Real-time PCR tracks product formation cycle by cycle.
For another series, the system named is r(CUG)109. Put plainly: In vitro reaction and pull down of small molecule dimers with RNA. As to conditions: rCUG109, GC-based paired RNA and tRNA. Type of series: biochemical. On the procedure:
Then 30 μL of this slurry were added to each sample and incubated at room temperature for 1 h. Then the samples were centrifuged and the supernatant was transferred to a separate tube. The beads were then washed with 1×PBST and centrifuged. The supernatant was transferred to the tube containing the unbound RNA. The total radioactive counts of bound and unbound RNA were measured by scintillation counting.

Entries after “also recorded” stand apart in the source; their conditions may differ.

Method for DMPK mRNA: Target identification of small molecule dimers was assessed using DM1 patient derived fibroblasts containing 500 CTG repeats (GM03987) and healthy fibroblasts (GM07492). Cells were grown as monolayers in 100 mm^2 in growth medium (1×EMEM (Lonza), 10% FBS, 1× glutagro (Corning), 1×MEM non-essential amino acids (Corning) and 1× antibiotic/antimycotic (Corning)). Once cells were 80% confluent, they were treated with growth medium containing the compound of interest (100 nM 2H-K4NMeS-CA-Biotin). After 48 h the cells were lysed and the total RNA was harvested using Trizol reagent (Life Technologies). Approximately 10 of total RNA was incubated with streptavidin-agarose beads (100 Sigma) for 1 h at room temperature. Then the beads were washed with 1×PBS and the bound RNA was eluted by adding 100 μL of 95% formamide, 10 mM EDTA pH 8.2 for 10 min at 60° C. The bound RNA was cleaned up using a Zymo Quick RNA miniprep kit. Approximately 100 ng of RNA was used for RT qScript cDNA synthesis kit (Quanta BioSciences). 10% of the RT reaction was used for real time PCR (qPCR) with SYBR green master mix (Life Technologies) performed on a 7900HT Fast Real-Time PCR System (Applied Biosystems). Monitored rCUG-containing mRNAs DMPK (500 repeats), SUPT20HL1 (17 repeats), CASK (16 repeats), LRP8 (11 repeats), MAP3K4 (11 repeats), SCUBE (7 repeats) and SORCS2 (7 repeats). Quantified by ΔΔCt relative to GAPDH

As to `[N-]=[N+]=NCC1OC(OC2C(N)CC(N)C(OC3OC(CN)C(O)C(O)C3O)C2O)C(O)C(N)C1O` (centres unmarked) [N3-K], the “average number of foci per cell” value with r(CCUG)300 is on record as 6±2 foci per cell.
As to `C#CC(=O)NCCCCCC(=O)N(CCN(C)C(=O)CCCOc1cccc(-c2nc3ccc(-c4nc5cc(N6CCN(C)CC6)ccc5[nH]4)cc3[nH]2)c1)CC(=O)N(C)[C@@H](C)C(=O)N(C)[C@@H](C)C(=O)N(C)[C@@H](C)C(=O)N(CCCCN(C)C(=O)CCCOc1cccc(-c2nc3ccc(-c4nc5cc(N6CCN(C)CC6)ccc5[nH]4)cc3[nH]2)c1)CC(=O)N(CCCN=[N+]=[N-])CC(N)=O` [N3-2H-K4NMeS-Aak], the RNA nuclear foci result in the series on r(CUG)exp [1] is given as “far fewer foci are observed”. Besides, in the series with r(CUG)exp [2] (DM1 patient-derived fibroblasts, 10 nM dosage), the “improvement of DM1-associated pre-mRNA splicing defects” value was greater than 50%. For the same compound, the DMPK translational defect result in series [3] was “improved the DMPK translational defect at nanomolar concentrations”. Further, the “effect on translation in cells without pathogenic repeats” value in series [4] was “has no effect on cells that did not have pathogenic repeats”.
Consider `C[C@@H](C(=O)N(C)[C@@H](C)C(=O)N(C)[C@@H](C)C(=O)N(C)[C@@H](C)C(=O)N(CCCCN(C)C(=O)CCCOc1cccc(-c2nc3ccc(-c4nc5cc(N6CCN(C)CC6)ccc5[nH]4)cc3[nH]2)c1)CC(N)=O)N(C)C(=O)CCCOc1cccc(-c2nc3ccc(-c4nc5cc(N6CCN(C)CC6)ccc5[nH]4)cc3[nH]2)c1` [2H-K4NMeS], for which the “potency at improving Clen1 pre-mRNA splicing defect compared to 2H-K4NMe” value in the series on r(CUG)exp [5] is greater than 7 fold. For the same compound, the “rescue of pre-mRNA splicing defect” value in the series on r(CUG)exp [2] (DM1 patient-derived fibroblasts, concentrations greater than 100 nM) is on record as greater than 50%. In [6], the “stability in microsomes (in words)” value is “stable in microsomes; also recorded: stable to rat microsomes”.
Turning to `C[C@H](NC(=O)[C@H](C)N(C)C(=O)CN(CCN(C)C(=O)CCCOc1cccc(-c2nc3ccc(-c4nc5cc(N6CCN(C)CC6)ccc5[nH]4)cc3[nH]2)c1)C(=O)CN(CCNC(=O)CCCC[C@@H]1SC[C@@H]2NC(=O)N[C@@H]21)C(=O)CCNC(=O)CCCc1ccc(N(CCCl)CCCl)cc1)C(=O)N(C)[C@@H](C)C(=O)N(CCCCN(C)C(=O)CCCOc1cccc(-c2nc3ccc(-c4nc5cc(N6CCN(C)CC6)ccc5[nH]4)cc3[nH]2)c1)CC(N)=O` [2H-K4NMeS-CA-Biotin], the “RNA targets pulled down (Chem-CLIP)” value in the series with DMPK mRNA is “binds to disease-causing expanded transcripts and not other RNAs with shorter (non-pathogenic length) r(CUG) repeats”. Further, the “in vitro reaction with RNA targets” value in the series on r(CUG)109 is on record as “most effectively reacted with r(CUG)109”. Also, in the series with r(CUG)exp [2] (cells), the “improvement of DM1-associated pre-mRNA splicing defects (in words)” value is listed as “improves DM1-associated pre-mRNA splicing defects in cells”.

Source of the values: patent publication US10471057B2, “Toxic RNA inhibitors self-assembled in situ” (THE SCRIPPS RESEARCH INSTITUTE, priority 2014, dated 2019).
